# Read-outs that look alike come from different tables or passages of the source.
# Key:
# [1] = target: Recombinant human Aurora B (amino acids 1-344) (Homo sapiens (Human), UniProt Q96GD4); assay: Aurora B kinase test (ADP Glo luminescence); assay type: biochemical
# Procedure: The activity of the Aurora B kinase protein was determined using the ADP Glo® Luminescence Kinase test (Promega; V9103X).
# Serial Dilution is done in 1:10 steps in 100% DMSO.
# Then 20 μl Kinase detection mix (Detection Buffer #V913B Promega; Kinase Detection Substrate #V914B Promega) were added and incubated for 40 minutes at room temperature.
# (§1) The output file of the reader is a csv file that contains the well number and measured RLU. For data evaluation and calculation, the measurement of the negative control was set as 0% ctrl and the measurement of the positive control was set as 100% ctrl. Based on this values the % value for the measurement of each substance concentration was calculated using an Assay Explorer software (Accelrys). Normally, the % ctrl values calculated are between 0% and 100% values but may also occur outside these limits in individual cases based on variability or compound characteristics. The IC50 values were calculated from the % ctrl values using Assay Explorer software. Calculation: [y=(a−d)/(1+(x/c)^b)+d], a=low value, d=high value; x=conc M; c=IC50 M; b=hill; y=% ctrl.
# FLT3 = FLT3 (Homo sapiens (Human), UniProt P36888); assay: FLT3 kinase test (Z'-LYTE); assay type: biochemical
# Procedure: The activity of FLT3 is measured using the Z′-LYTETM assay technology from Invitrogen (#PV3191)
# The reaction is started by addition of 2.5 μl of the 4×ATP solution.
# Positive controls are reaction mixtures containing no test compound; negative controls (blanks) are reaction mixtures containing no kinase. As a further control, the phosphopeptide solution is added to wells without kinase (=100% phosphorylation control).
# The reaction is performed for 1 h at room temperature before 5 μl of the development solution is added. After a further incubation for 1 h at room temperature 5 μl of the stop reagent is added.
# The output text file is evaluated in an “MS-Excel—VB-Makro” and “GraphPadPrism” (Version 5) (GraphPad Software Inc.) is used to calculate the results. Data for the inhibition of FLT3 are reported in M. data for the inhibition of the protease are reported in % CTL.
# Human GSK3beta = Human GSK3beta (Homo sapiens (Human), UniProt P49841); assay: GSK 3beta kinase test (Z'-LYTE); assay type: biochemical; conditions: read-out: IC50 in μM (GSK3beta-Inhibition)
# Procedure: Human GSK3beta (expressed and prified from SF21 cells) is obtained from the University Dundee/Scotland (Dr. James Hastie—Dept. of Biochemistry) in 50 mM Tris (pH7.5); 150 mM NaCl; 0.1 mM EGTA, 270 mM Succrose, 0.1% β-mercaptoethanol, 1 mM benzamidine, 0.2 mM PMSF; sequence see below). The enzyme is diluted to 3.56 μM (168 μg/ml) in enzyme dilution buffer and 6 μl aliquots are stored at −80° C.
# The activity of GSK3 kinase protein is measured using the Z′-LYTETM assay technology from Invitrogen (# PV3324).
# The assay is performed in 384 black plates from Corning (#3676) in a final volume of 10 μl by adding 5 μl of kinase peptide mix and 2.5 μl of compound dilution. The reaction is started by addition of 2.5 μl of the 4×ATP solution.
# Positive controls are reaction mixtures containing no test compound; negative controls (blanks) are reaction mixtures containing no ATP. As a further control, the phosphopeptide solution is added to wells without kinase and without ATP (=100% phosphorylation control).
# The non inhibited kinase reaction will result in a phosphorylation corresponding to 20%-30% of the phosphorylation control.
# The reaction is performed 1 h at room temperature. After 1h 5 μl of the development solution is added. After a further incubation for 1 h at room temperature 5 μl of the stop reagent is added. Finally the plates are read on a Flex Station II 384 (Molecular Devices).
# The output text file is evaluated in an “MS-Excel—VB-Makro” and “GraphPadPrism” (Version 5) (GraphPad Software Inc.) is used to calculate the results. Data for the inhibition of GSK3beta are reported in M. data for the inhibition of the protease are reported in % CTL.
# [2] = Human liver microsomal stability test; assay type: in vitro ADME; conditions: for microsomal stability Cl [% Qh]: human liver microsomes, Qh = liver blood flow
# Procedure: The metabolic degradation for a specific SYK-inhibitor is performed at 37° C. with pooled human liver microsomes (human liver microsomes are commercially available as “BD UltraPool™” by Corning Life Sciences, Fogostraat 12, 1060 LJ Amsterdam, The Netherlands). The final incubation volume of 100 μl per time point contains TRIS buffer pH 7.6 at RT (0.1 M), magnesium chloride (5 mM), microsomal protein (1 mg/ml) and the test compound at a final concentration of 1 μM.
# Following a short preincubation period at 37° C., the reaction is initiated by addition of beta-nicotinamide adenine dinucleotide phosphate in its reduced form (NADPH, 1 mM) and terminated by transfering an aliquot into solvent after different time points. Additionally, the NADPH-independent degradation is monitored in incubations without NADPH, terminated at the last time point.
# The quenched (terminated) incubations are then pelleted by centrifugation (10000 g, 5 min).
# An aliquot of the supernatant is assayed by LC-MS/MS for the remaining amount of parent compound. The half-life (t1/2 INVITRO) is determined by the slope of the semilogarithmic plot of the concentration-time profile.
# The intrinsic clearance (CL_[…]) is calculated by considering the amount of protein in the incubation: CL_[…][μl/min/mg protein]=(Ln 2/(t1/2 INVITRO[min]*protein content[mg/ml]))*1000
# The protein content [mg/ml] was determined with the “Bicinchoninic Acid Kit” of Sigma Aldrich (commercially available).
# The upscaled intrinsic Clearance (CL_UP_INT) is calculated by considering the liver weight [g liver/kg body weight] and the microsomal recovery [mg protein/g liver]: CL_UP_INT[ml/min/kg]=0.001*CL_[…]*liver weight*microsomal recovery • with microsomal recovery=45 mg protein/g liver • with liver weight=25.7 g liver/kg body weight
# The percent hepatic blood flow (% Qh) is finally calculated by considering the human liver blood flow Q [ml/min/kg]: % Qh[%]=((Q*CL_UP_INT)/(Q+CL_UP_INT)/Q)*100 • with liver blood flow (Q)=20.7 ml/min/kg.
# [3] = target: Recombinant human Syk (amino acids 342-635), GST-Syk kinase fusion protein (Homo sapiens (Human), UniProt P43405); assay: Syk kinase test (Kinase Glo luminescence); assay type: biochemical; conditions: Table 1; read-out: SYK-inhibition IC50-value
# Procedure: as §1, with “measured relative light units (RLU).” for “measured RLU.”, “as 100%” for “as 0%”, “as 0%” for “as 100%”, “software. Calculation:[y=(a−d)/(1+(x/c)^b)+d]” for “software. Calculation: [y=(a−d)/(1+(x/c)^b)+d],”
# [4] = read-out: IC50 in μM (AURB-Inhibition)
# [5] = read-out: IC50 in μM (FLT3-Inhibition)
# [6] = Table 1, read-out: AURB-inhibition IC50-value
# [7] = Table 1, read-out: FLT3-inhibition IC50-value
# [8] = read-out: IC50-values with regard to AURB
# FLT3, sequence (P36888 27-993): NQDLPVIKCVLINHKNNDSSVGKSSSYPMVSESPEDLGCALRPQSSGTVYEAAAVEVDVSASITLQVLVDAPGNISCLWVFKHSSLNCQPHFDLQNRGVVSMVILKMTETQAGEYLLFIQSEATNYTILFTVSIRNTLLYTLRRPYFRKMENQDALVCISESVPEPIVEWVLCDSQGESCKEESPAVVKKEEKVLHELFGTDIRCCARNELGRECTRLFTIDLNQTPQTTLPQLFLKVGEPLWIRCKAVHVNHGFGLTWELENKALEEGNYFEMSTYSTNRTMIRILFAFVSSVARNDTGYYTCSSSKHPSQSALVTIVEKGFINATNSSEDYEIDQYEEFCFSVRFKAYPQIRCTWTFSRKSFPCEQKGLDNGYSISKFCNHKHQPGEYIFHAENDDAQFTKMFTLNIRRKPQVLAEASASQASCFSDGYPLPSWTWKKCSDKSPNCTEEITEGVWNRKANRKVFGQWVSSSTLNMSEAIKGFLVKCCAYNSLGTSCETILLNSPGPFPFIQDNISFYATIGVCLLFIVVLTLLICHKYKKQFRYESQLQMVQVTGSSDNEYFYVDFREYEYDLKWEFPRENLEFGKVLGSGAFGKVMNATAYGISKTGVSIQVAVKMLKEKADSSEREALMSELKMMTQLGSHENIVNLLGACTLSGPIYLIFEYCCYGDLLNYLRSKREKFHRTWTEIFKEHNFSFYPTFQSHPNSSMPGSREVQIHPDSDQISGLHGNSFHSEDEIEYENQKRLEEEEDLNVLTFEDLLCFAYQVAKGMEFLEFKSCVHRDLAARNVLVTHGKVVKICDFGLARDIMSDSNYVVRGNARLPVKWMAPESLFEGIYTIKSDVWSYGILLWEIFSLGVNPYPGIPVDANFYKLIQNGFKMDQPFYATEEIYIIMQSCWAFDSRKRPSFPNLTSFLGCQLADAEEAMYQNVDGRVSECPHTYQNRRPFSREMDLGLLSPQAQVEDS
# Recombinant human Aurora B (amino acids 1-344), sequence (Q96GD4 whole entry, the tested form may be a part): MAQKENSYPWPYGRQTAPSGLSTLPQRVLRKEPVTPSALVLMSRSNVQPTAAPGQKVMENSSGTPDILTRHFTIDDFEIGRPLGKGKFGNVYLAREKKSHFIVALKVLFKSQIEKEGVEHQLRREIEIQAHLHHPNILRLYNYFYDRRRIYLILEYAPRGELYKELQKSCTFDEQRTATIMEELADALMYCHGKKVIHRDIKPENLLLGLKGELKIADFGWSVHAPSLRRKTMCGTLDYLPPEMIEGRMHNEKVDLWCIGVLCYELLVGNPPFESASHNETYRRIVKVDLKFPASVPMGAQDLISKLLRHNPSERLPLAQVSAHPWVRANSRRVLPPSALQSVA
# Human GSK3beta, sequence (P49841 whole entry): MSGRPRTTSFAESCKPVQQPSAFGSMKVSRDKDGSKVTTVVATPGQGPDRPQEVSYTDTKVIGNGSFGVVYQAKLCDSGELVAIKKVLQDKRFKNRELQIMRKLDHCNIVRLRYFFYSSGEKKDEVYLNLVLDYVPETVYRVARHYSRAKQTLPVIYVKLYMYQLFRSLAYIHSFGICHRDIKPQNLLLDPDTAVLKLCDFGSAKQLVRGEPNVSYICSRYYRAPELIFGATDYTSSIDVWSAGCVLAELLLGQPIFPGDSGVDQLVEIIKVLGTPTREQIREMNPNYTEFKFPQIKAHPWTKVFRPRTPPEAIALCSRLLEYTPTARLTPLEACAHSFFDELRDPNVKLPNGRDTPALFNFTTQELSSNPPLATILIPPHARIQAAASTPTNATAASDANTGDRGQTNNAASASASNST
smiles,measurement,setting,value
C[C@@H](Oc1nc(-c2ccc(OC(F)(F)F)c(F)c2)cc2ncccc12)[C@H]1CNC(=O)C1 [1 of WO 2011/092128],IC50,[1]; [4],5.09 µM
same,IC50,FLT3; [5],1.53 µM
same,IC50,Human GSK3beta,> 10 µM
COc1cc(-c2cc(O[C@H](C)[C@H]3CNC(=O)C3)c3cccnc3c2)cc(OC)c1OC [2 of WO 2013/014060],IC50,[1]; [4],16.9 µM
same,IC50,FLT3; [5],7.39 µM
same,microsomal stability Cl [% Qh],[2],81 % Qh
same,IC50,Human GSK3beta,> 10 µM
COc1cc(-c2cc3ncccc3c(O[C@H](C)[C@H]3CNC(=O)C3)n2)cc(Cl)c1OC [7 of WO 2011/092128],IC50,[1]; [4],2.33 µM
same,IC50,FLT3; [5],0.452 µM
same,microsomal stability Cl [% Qh],[2],79 % Qh
same,IC50,Human GSK3beta,> 10 µM
COc1cc(-c2cc3ncccc3c(O[C@H](C)[C@H]3CNC(=O)C3)n2)cc(OC)c1Cl [8 of WO 2011/092128],IC50,[1]; [4],> 50 µM
same,IC50,FLT3; [5],> 50 µM
same,microsomal stability Cl [% Qh],[2],77 % Qh
same,IC50,Human GSK3beta,> 10 µM
COc1ccc(-c2cc(O[C@H](C)[C@H]3CNC(=O)C3)c3cccnc3c2)cc1OC [8 of WO 2013/014060],IC50,[1]; [4],0.643 µM
same,IC50,FLT3; [5],0.369 µM
same,microsomal stability Cl [% Qh],[2],58 % Qh
same,IC50,Human GSK3beta,> 10 µM
COc1cc(-c2cc(O[C@H](C)[C@H]3CNC(=O)C3)c3cccnc3c2)ccc1OC(C)C [10 of WO 2013/014060],IC50,[1]; [4],0.271 µM
same,IC50,FLT3; [5],0.312 µM
same,microsomal stability Cl [% Qh],[2],57 % Qh
same,IC50,Human GSK3beta,> 10 µM
COc1cc(-c2cc(O[C@H](C)[C@H]3CNC(=O)C3)c3cccnc3c2)ccc1O [11 of WO 2013/014060],IC50,[1]; [4],0.752 µM
same,microsomal stability Cl [% Qh],[2],24 % Qh
same,IC50,Human GSK3beta,> 10 µM
C[C@@H](Oc1cc(-c2ccc3ncccc3c2)cc2ncccc12)[C@H]1CNC(=O)C1 [29 of WO 2013/014060],IC50,[1]; [4],0.293 µM
same,IC50,FLT3; [5],0.315 µM
same,microsomal stability Cl [% Qh],[2],44 % Qh
same,IC50,Human GSK3beta,> 10 µM
C[C@@H](Oc1cc(-c2ccc3[nH]cnc3c2)cc2ncccc12)[C@H]1CNC(=O)C1 [41 of WO 2013/014060],IC50,[1]; [4],0.308 µM
same,IC50,FLT3; [5],0.505 µM
same,microsomal stability Cl [% Qh],[2],37 % Qh
same,IC50,Human GSK3beta,> 10 µM
C[C@@H](Oc1cc(-c2ccc(CN3CCOCC3)cc2)cc2ncccc12)[C@H]1CNC(=O)C1 [43 of WO 2013/014060],IC50,[1]; [4],0.144 µM
same,IC50,FLT3; [5],0.157 µM
same,microsomal stability Cl [% Qh],[2],<23 % Qh
C[C@@H](Oc1nc(-c2ccc(N3CCOCC3)nc2)cc2ncccc12)[C@H]1CNC(=O)C1 [45 of WO 2011/092128],microsomal stability Cl [% Qh],[2],53 % Qh
Cc1c(-c2cc(O[C@H](C)[C@H]3CNC(=O)C3)c3cccnc3c2)cnn1C [112 of WO 2013/014060],microsomal stability Cl [% Qh],[2],<23 % Qh
CCCn1cc(-c2cc(O[C@H](C)[C@H]3CNC(=O)C3)c3cccnc3c2)cn1 [114 of WO 2013/014060],microsomal stability Cl [% Qh],[2],26 % Qh
CC(C)n1cc(-c2cc(O[C@H](C)[C@H]3CNC(=O)C3)c3cccnc3c2)cn1 [115 of WO 2013/014060],microsomal stability Cl [% Qh],[2],<23 % Qh
"C[C@@H](Oc1cc(-c2ccc(N3CCOCC3)cc2)cc2nn(C)cc12)[C@H]1CNC(=O)C1 [Example 22, (4R)-4-[(1R)-1-[2-Methyl-6-(4-morpholinophenyl)indazol-4-yl]oxyethyl]-pyrrolidin-2-one]",microsomal stability Cl [% Qh],[2],25 % Qh
same,IC50,Human GSK3beta,> 10 µM
"C[C@@H](Oc1nc(-c2ccc3c(c2)CN(C)CC3)cc2nn(C)cc12)[C@H]1CNC(=O)C1 [Example 75, (4R)-4-[(1R)-1-[2-methyl-6-(2-methyl-3,4-dihydro-1H-isoquinolin-7-yl)pyrazolo[4,3-c]pyridin-4-yl]oxyethyl]-pyrrolidin-2-one]",IC50,[1]; [6],8.54 µM
same,IC50,FLT3; [7],1.59 µM
same,IC50,[3],99.8 nM
"C[C@@H](Oc1nc(-c2cnn(CCC(F)(F)F)c2)cc2nn(C)cc12)[C@H]1CNC(=O)C1 [Example 76, (4R)-4-[(1R)-1-[2-methyl-6-[1-(3,3,3-trifluoropropyl)-pyrazol-4-yl]pyrazolo[4,3-c]pyridin-4-yl]oxyethyl]-pyrrolidin-2-one]",IC50,[1]; [6],46.2 µM
same,IC50,FLT3; [7],14.8 µM
same,IC50,[3],58.3 nM
"C[C@@H](Oc1nc(-c2cc3cccc(Cl)c3[nH]2)cc2nn(C)cc12)[C@H]1CNC(=O)C1 [Example 77, (4R)-4-[(1R)-1-[6-(7-chloro-1H-indol-2-yl)-2-methyl-pyrazolo[4,3-c]pyridin-4-yl]oxyethyl]pyrrolidin-2-on]",IC50,[1]; [6],43.4 µM
same,IC50,FLT3; [7],3.75 µM
same,IC50,[3],49.8 nM
"C[C@@H](Oc1nc(-c2cnn(C3CC3)c2)cc2nn(C)cc12)[C@H]1CNC(=O)C1 [Example 78, (4R)-4-[(1R)-1-[6-(1-cyclopropylpyrazol-4-yl)-2-methyl-pyrazolo[4,3-c]pyridin-4-yl]oxyethyl]pyrrolidin-2-one]",IC50,[1]; [6],> 50 µM
same,IC50,FLT3; [7],22 µM
same,IC50,[3],35.9 nM
"COc1cc(-c2cc(O[C@H](C)[C@H]3CNC(=O)C3)c3cccnc3c2)cc(OC)c1OC [example 2 of WO2013/014060, reference compound]",IC50,[1]; [8],16.9 µM
same,human liver microsomal stability CI,[2],81 % Qh
"COc1cc(-c2cc3ncccc3c(O[C@H](C)[C@H]3CNC(=O)C3)n2)cc(OC)c1Cl [example 8 of WO 2011/092128, reference compound]",IC50,[1]; [8],> 50 µM
same,human liver microsomal stability CI,[2],77 % Qh

# Reference: patent publication US9914735B2, “Heteroaryl Syk inhibitors” (Boehringer Ingelheim International GmbH, priority 2014, dated 2018)
